Measurements: ChEMBL document CHEMBL1201862, “PubChem BioAssay data set” (2004)
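Test compounds were applied to cells in 96-well plates for 48 hours at 5 doses. GI50 = concentration required for 50% inhibition of growth.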 Calls of active or inactive are those of the source. Rule as the data show it: active = GI50 up to about 1.1 µM and inactive = higher.

Legend:
Assay in all cases: growth of human tumour cells (NCI), 48 h
[1] = tested on: SK-MEL-5
[2] = tested on: UACC-62
[3] = tested on: RXF 393
[4] = tested on: SF-539
[5] = tested on: NCI-H522
[6] = tested on: SN12C
[7] = tested on: LOX IMVI
[8] = tested on: SK-MEL-2
[9] = tested on: IGROV-1
[10] = tested on: EKVX
[11] = tested on: NCI-H226
[12] = tested on: HT-29
[13] = tested on: A549
[14] = tested on: OVCAR-5
[15] = tested on: COLO 205
[16] = tested on: HOP-92

Measured: GI50

O=C(O)CS [THIOGLYCOLIC ACID]
inactive: [1] > 100 µM | [2] > 100 µM | [3] > 100 µM | [4] > 100 µM | [5] > 100 µM | [6] > 100 µM | [7] > 100 µM | [8] > 100 µM | [9] > 100 µM | [10] > 100 µM | [11] > 100 µM | [12] > 100 µM | [13] > 100 µM | [14] > 100 µM | [15] > 100 µM | [16] > 100 µM

CN(C)c1snc2c1c(=O)n(C)c(=O)n2C
inactive: [1] > 100 µM | [2] > 100 µM | [4] > 100 µM | [5] > 100 µM | [6] > 100 µM | [7] > 100 µM | [8] > 100 µM | [9] > 100 µM | [10] 40.1 µM | [11] 65.2 µM | [12] > 100 µM | [13] > 100 µM | [14] > 100 µM | [15] > 100 µM

CCOc1ccc(NC2=NC(=O)C(CC(=O)Nc3ccc(Cl)cc3Cl)S2)cc1 (stereo not given)
inactive: [1] > 100 µM | [2] > 100 µM | [4] > 100 µM | [6] > 100 µM | [7] > 100 µM | [8] > 100 µM | [9] > 100 µM | [10] > 100 µM | [12] > 100 µM | [13] > 100 µM | [14] > 100 µM | [15] > 100 µM

FC(F)(F)c1ccccc1C1SCc2nc3ccccc3n21 (stereo not given)
inactive: [1] > 10 µM | [2] 22.5 µM | [3] 91.8 µM | [4] 85.7 µM | [5] 18.3 µM | [6] 31.6 µM | [8] 99.3 µM | [9] 60.1 µM | [10] 41.1 µM | [11] 39.4 µM | [12] 33.8 µM | [13] 41.6 µM | [14] 28.8 µM | [15] 59.8 µM | [16] 4.67 µM

CC(=O)C1=CCC2c3[nH]c4ccccc4c3CCN2C1 (stereo not given)
inactive: [1] 50 µM | [3] 35.8 µM | [4] 26.6 µM | [5] 24.7 µM | [6] 68.4 µM | [7] 58.7 µM | [8] 66.4 µM | [9] 61.1 µM | [10] 67.1 µM | [11] > 100 µM | [12] 31.3 µM | [13] > 100 µM | [14] > 100 µM | [15] > 100 µM | [16] 36.3 µM

COC(=O)C(C(=O)C(=O)Nc1nc2ccc(OC)cc2s1)c1cnc2ccccc2n1 (stereo not given)
inactive: [1] > 100 µM | [2] > 100 µM | [3] > 100 µM | [4] > 100 µM | [5] > 100 µM | [6] > 100 µM | [7] > 100 µM | [9] > 100 µM | [10] > 100 µM | [11] > 100 µM | [12] > 100 µM | [13] > 100 µM | [14] > 100 µM | [15] > 100 µM | [16] > 100 µM

O=C(O)c1ccc(/N=N/c2cc(S(=O)(=O)O)c3cccnc3c2O)cc1
inactive: [1] > 100 µM | [3] > 100 µM | [4] > 100 µM | [6] > 100 µM | [7] > 100 µM | [8] > 100 µM | [9] > 100 µM | [10] > 100 µM | [11] > 100 µM | [12] > 100 µM | [13] > 100 µM | [14] > 100 µM | [15] > 100 µM | [16] > 100 µM

CCCCOC(=O)NC(=O)c1cn(CCSCCOC(=O)NCCCCCCNC(=O)OCCSCCn2cc(C(=O)NC(=O)OCCCC)c(=O)[nH]c2=O)c(=O)[nH]c1=O
inactive: [1] > 100 µM | [2] 41.5 µM | [3] 22.5 µM | [4] > 100 µM | [5] 32.6 µM | [6] > 100 µM | [7] > 100 µM | [8] 56.9 µM | [9] 37.7 µM | [10] 91.4 µM | [12] > 100 µM | [13] > 100 µM | [14] > 100 µM | [15] > 100 µM | [16] 21.5 µM

CCOC(=O)N1c2c(ccn2C)-c2ccn(C)c2N1C(=O)OCC
inactive: [1] > 100 µM | [2] 16.7 µM | [4] 20 µM | [5] 11.3 µM | [6] 15.8 µM | [7] 12.9 µM | [8] 21.4 µM | [9] 24.9 µM | [11] 19.7 µM | [12] 15.7 µM | [13] 20.9 µM | [14] 17.4 µM | [15] 22.7 µM | [16] 20.6 µM

COC(=O)C1=C(O)c2cc(OC)c(OC)c(OC)c2C(c2ccc3c(c2)OCO3)[C@@H]1C(=O)OC (stereo not given in full)
inactive: [2] 1.53 µM | [3] 2.29 µM | [4] 2.18 µM | [6] 3.68 µM | [7] 4.43 µM | [8] 7.48 µM | [9] 5.56 µM | [10] 25.2 µM | [11] 8.97 µM | [12] 2.84 µM | [13] 4.68 µM | [14] > 100 µM | [15] 2.24 µM | [16] > 100 µM

N=CCCN(CCC=N)c1ccc(/C=C2\CN(NC(=O)c3ccc(Cl)cc3)C(c3ccccc3)=N2)cc1
inactive: [1] > 100 µM | [2] > 100 µM | [4] > 100 µM | [6] > 100 µM | [7] 75 µM | [8] > 100 µM | [9] > 100 µM | [10] > 100 µM | [11] > 100 µM | [12] > 100 µM | [13] > 100 µM | [14] > 100 µM | [15] > 100 µM | [16] > 100 µM

COC(=O)[C@@]12CC(C(C)C)[C@H]3CC(C(=O)C=C1OC)[C@H]32 (stereo not given in full)
inactive: [1] > 100 µM | [2] > 100 µM | [3] > 100 µM | [4] > 100 µM | [6] > 100 µM | [8] > 100 µM | [9] > 100 µM | [10] > 100 µM | [12] > 100 µM | [13] > 100 µM | [14] > 100 µM | [15] > 100 µM | [16] > 100 µM

C[C@@H]1O[C@@H](O[C@H]2[C@H](Oc3cc(O)c4c(=O)cc(-c5ccc(O)cc5)oc4c3)O[C@H](CO)[C@@H](O)[C@@H]2O)[C@H](O)[C@H](O)[C@H]1O [RHOIFOLIN]
inactive: [1] > 100 µM | [2] > 100 µM | [4] > 100 µM | [5] > 100 µM | [6] > 100 µM | [7] > 100 µM | [8] > 100 µM | [9] > 100 µM | [10] > 100 µM | [12] > 100 µM | [13] > 100 µM | [14] > 100 µM | [15] > 100 µM | [16] > 100 µM
